Laboratory results reported in patent US20220054532A1, “VETERINARY COMPOSITIONS AND METHODS OF USE THEREFOR” (priority 2019, published 2022).

Columns and labels:
Assay type in all cases: in vivo
[1] = test system: dogs suffering from seizures; assay: Example 14: seizures in dogs (CBD Complex); conditions: seizure scale 1 (seizure-free) to 10 (daily or multiple seizures)
Excerpt: (§1) This example examines the ability of embodiments of the invention versus phenobarbital to treat seizures.
(§2) The patient group is twenty-four dogs suffering from seizures as diagnosed by their referring veterinarian. The patient group is broken into six groups of four animals. The first group receives phenobarbital as the sole active agent; the second group receives a composition comprising phenobarbital and Keppra®; the third group receives a composition comprising HMW HA as the sole active agent; the fourth group receives a composition comprising CBD as the sole active agent; the fifth group receives a composition comprising HMW HA and CBD Complex as the active agents; and the sixth group receives a composition comprising HMW HA, CBD Complex, valerian root, and scutillaria as the active agents.
(§3) Each composition is administered for a period of sixty (60) days, BID. Each dog is evaluated on days 0 (“Initial Score”), 15, 30, 45, and 60 (“Final Score”) of treatment. The results are averaged and characterized on a scale of 1 (seizure-free) to 10 (daily seizures or multiple seizures during the event).
The following canine scores are observed and the results depicted in FIG. 14: […]

[2] = test system: dogs suffering from seizures; assay: Example 6: seizures in dogs; conditions: seizure scale 1 (seizure-free) to 10 (daily or multiple seizures)
Excerpt: as §1
as §2, with “CBD” for “CBD Complex”, “CBD,” for “CBD Complex,”
as §3
The following canine scores are observed and the results depicted in FIG. 6: […]

[3] = test system: cats suffering behavior aberrations and/or anxiety; assay: Example 5: behavior aberrations and anxiety, Fe-BARQ (feline); conditions: Fe-BARQ day 0 vs 60, SID, 0 (no improvement) to 3 (marked improvement)
Excerpt: (§4) This example examines the ability of embodiments of the invention versus Clomicalm® to reduce behavior aberrations and anxiety.
(§5) The first patient group is twenty dogs suffering behavior aberrations and/or anxiety, as determined by the canine behavioral assessment and research questionnaire (“C-BARQ”). See, e.g., P. Wiener et al., Use of questionnaire-based data to assess dog personality, 16 JOURNAL OF VETERINARY BEHAVIOR 81-85 (2016). The second patient group is twenty cats suffering behavior aberrations and/or anxiety, as determined by the feline behavioral assessment and research questionnaire (“Fe-BARQ”).
(§6) Each group is broken into five groups of four animals. The first group receives Clomicalm® as the sole active agent; the second group receives a composition comprising HMW HA as the sole active agent; the third group receives a composition comprising CBD as the sole active agent; the fourth group receives a composition comprising HMW HA and CBD as the active agents; and the fifth group receives a composition comprising HMW HA, CBD, valerian root, and scutillaria as the active agents.
(§7) Each composition is administered for a period of sixty (60) days, once a day (“SID”). Owners complete the species-appropriate C-BARQ or Fe-BARQ on days 0 and 60 of treatment. The results from the overall questionnaire are averaged and characterized as no improvement (score of 0), mild improvement (score of 1), moderate improvement (score of 2), or marked improvement (score of 3).
The following feline scores are observed and the results depicted in FIG. 5b: […]

[4] = test system: dogs suffering behavior aberrations and/or anxiety; assay: Example 5: behavior aberrations and anxiety, C-BARQ (canine); conditions: C-BARQ day 0 vs 60, SID, 0 (no improvement) to 3 (marked improvement)
Excerpt: as §4, §5, §6, §7
The following canine scores are observed and the results depicted in FIG. 5a: […]

SMILES: CCC1(c2ccccc2)C(=O)NC(=O)NC1=O [Phenobarbital]
- Initial Score ([1]; day 0): 9
- Final Score ([1]; day 60, BID): 8
- Initial Score ([2]; day 0): 9
- Final Score ([2]; day 60, BID): 8

SMILES: CN(C)CCCN1c2ccccc2CCc2ccc(Cl)cc21 [Clomicalm ®]
- Improvement Score [3]: .4
- Improvement Score [4]: .5
